The results in this text go back to article PMC5218480 (PLoS ONE, 2017).

This assay deals with MV-4-11 cells. Briefly: Gene expression microarray analysis (Affymetrix PrimeView) and GSEA. Further details: RFU PODN (11730768_x_at) / Fold change /veh PODN (11730768_x_at) / RFU LINC00158 (11744669_a_at) / Fold change /veh LINC00158 (11744669_a_at) / RFU DUSP10 (11751237_a_at) / Fold change /veh DUSP10 (11751237_a_at) / RFU ID3 (11757404_x_at) / Fold change /veh ID3 (11757404_x_at) / RFU PLEKHG5 (11737974_s_at) / Fold change /veh PLEKHG5 (11737974_s_at) / RFU LRRC4B (11730491_at) / Fold change /veh LRRC4B (11730491_at) / RFU GIMAP4 (11747438_a_at) / Fold change /veh GIMAP4 (11747438_a_at) / RFU KRT8 (11758183_x_at) / Fold change /veh KRT8 (11758183_x_at) / RFU CNN1 (11734310_a_at) / Fold change /veh CNN1 (11734310_a_at) / RFU VPS37D (11726825_at) / Fold change /veh VPS37D (11726825_at) / RFU C10orf10 (11716522_x_at) / Fold change /veh C10orf10 (11716522_x_at) / RFU KIR2DL2 /// KIR2DL4 /// KIR2DL5A /// KIR2DL5B /// KIR2DS1 /// KIR2DS2 /// KIR2DS3 /// KIR2DS4 /// KIR3DL3 /// KIR3DL3 /// KIR3DS1 (11738374_at) / Fold change /veh KIR2DL2 /// KIR2DL4 /// KIR2DL5A /// KIR2DL5B /// KIR2DS1 /// KIR2DS2 /// KIR2DS3 /// KIR2DS4 /// KIR3DL3 /// KIR3DL3 /// KIR3DS1 (11738374_at) / RFU C1QL1 (11718748_at) / Fold change /veh C1QL1 (11718748_at) / RFU TMPRSS4 (11747572_a_at) / Fold change /veh TMPRSS4 (11747572_a_at) / RFU HAMP (11756126_x_at) / Fold change /veh HAMP (11756126_x_at) / RFU RNFT2 (11725882_a_at) / Fold change /veh RNFT2 (11725882_a_at) / RFU NR4A2 (11747474_a_at) / Fold change /veh NR4A2 (11747474_a_at) / RFU ABCC12 (11746883_a_at) / Fold change /veh ABCC12 (11746883_a_at) / RFU TMEM136 (11760407_x_at) / Fold change /veh TMEM136 (11760407_x_at) / RFU CLDN22 /// WWC2 (11732394_at) / Fold change /veh CLDN22 /// WWC2 (11732394_at) / RFU HLA-DPB1 (11760878_x_at) / Fold change /veh HLA-DPB1 (11760878_x_at) / RFU SPINT1 (11716480_a_at) / Fold change /veh SPINT1 (11716480_a_at) / RFU GAP43 (11754022_s_at) / Fold change /veh GAP43 (11754022_s_at) / RFU A4GNT (11735810_at) / Fold change /veh A4GNT (11735810_at) / RFU PRB3 (11715151_x_at) / Fold change /veh PRB3 (11715151_x_at) / RFU TUBB4B (11761932_at) / Fold change /veh TUBB4B (11761932_at) / RFU CAPN14 (11732068_a_at) / Fold change /veh CAPN14 (11732068_a_at) / RFU TMCC2 (11721928_a_at) / Fold change /veh TMCC2 (11721928_a_at) / RFU IRGQ (11745062_a_at) / Fold change /veh IRGQ (11745062_a_at) / RFU FAM174B (11720279_a_at) / Fold change /veh FAM174B (11720279_a_at) / RFU TMPRSS4 (11748680_a_at) / Fold change /veh TMPRSS4 (11748680_a_at) / RFU FAM212B (11763350_a_at) / Fold change /veh FAM212B (11763350_a_at) / RFU PLEKHG5 (11743358_a_at) / Fold change /veh PLEKHG5 (11743358_a_at) / RFU ZSCAN30 (11745921_a_at) / Fold change /veh ZSCAN30 (11745921_a_at) / RFU CMKLR1 (11741424_a_at) / Fold change /veh CMKLR1 (11741424_a_at) / RFU LOC101060620 /// MAPK8IP1 (11723275_at) / Fold change /veh LOC101060620 /// MAPK8IP1 (11723275_at) / RFU SPTSSB (11747773_x_at) / Fold change /veh SPTSSB (11747773_x_at) / RFU PRSS12 (11739890_at) / Fold change /veh PRSS12 (11739890_at) / RFU BIN1 (11741810_x_at) / Fold change /veh BIN1 (11741810_x_at) / RFU WNT11 (11732464_a_at) / Fold change /veh WNT11 (11732464_a_at) / RFU C10orf10 (11716521_a_at) / Fold change /veh C10orf10 (11716521_a_at) / RFU C5orf56 (11738089_at) / Fold change /veh C5orf56 (11738089_at) / RFU CYB561 (11721691_x_at) / Fold change /veh CYB561 (11721691_x_at) / RFU ANKRD19P (11752326_a_at) / Fold change /veh ANKRD19P (11752326_a_at) / RFU OR2T12 /// OR2T33 /// OR2T8 (11738714_s_at) / Fold change /veh OR2T12 /// OR2T33 /// OR2T8 (11738714_s_at) / RFU VCAN (11748164_a_at) / Fold change /veh VCAN (11748164_a_at) / RFU JSRP1 (11732532_at) / Fold change /veh JSRP1 (11732532_at) / RFU KRTAP10-11 (11738290_x_at) / Fold change /veh KRTAP10-11 (11738290_x_at) / RFU MYO3A (11730013_a_at) / Fold change /veh MYO3A (11730013_a_at) / RFU EBF3 (11725865_a_at) / Fold change /veh EBF3 (11725865_a_at) / RFU CAMK2N1 (11719241_x_at) / Fold change /veh CAMK2N1 (11719241_x_at) / RFU C5orf56 (11738088_a_at) / Fold change /veh C5orf56 (11738088_a_at) / RFU OLFML3 (11715873_a_at) / Fold change /veh OLFML3 (11715873_a_at) / RFU LOC100653217 /// NTM (11731650_a_at) / Fold change /veh LOC100653217 /// NTM (11731650_a_at) / RFU MAPK11 (11762145_a_at) / Fold change /veh MAPK11 (11762145_a_at) / RFU FIZ1 (11724087_x_at) / Fold change /veh FIZ1 (11724087_x_at) / RFU OASL (11726364_x_at) / Fold change /veh OASL (11726364_x_at) / RFU SOX15 (11748057_x_at) / Fold change /veh SOX15 (11748057_x_at) / RFU CD79A (11719716_a_at) / Fold change /veh CD79A (11719716_a_at) / RFU HIST1H1D (11736915_at) / Fold change /veh HIST1H1D (11736915_at) / RFU CASKIN2 (11723855_a_at) / Fold change /veh CASKIN2 (11723855_a_at) / RFU LOC730098 (11760151_x_at) / Fold change /veh LOC730098 (11760151_x_at) / RFU OR4N2 (11742367_at) / Fold change /veh OR4N2 (11742367_at) / RFU PRRT2 (11749266_a_at) / Fold change /veh PRRT2 (11749266_a_at) / RFU SNX32 (11753110_a_at) / Fold change /veh SNX32 (11753110_a_at) / RFU CDHR5 (11726645_a_at) / Fold change /veh CDHR5 (11726645_a_at) / RFU RCAN1 (11760418_a_at) / Fold change /veh RCAN1 (11760418_a_at) / RFU FAM167A (11723789_a_at) / Fold change /veh FAM167A (11723789_a_at) / RFU FAM26E (11764081_at) / Fold change /veh FAM26E (11764081_at) / RFU ISYNA1 (11749810_s_at) / Fold change /veh ISYNA1 (11749810_s_at) / RFU ACY1 (11761880_at) / Fold change /veh ACY1 (11761880_at) / RFU 11764098_at / Fold change /veh 11764098_at / RFU SAMD14 (11745864_x_at) / Fold change /veh SAMD14 (11745864_x_at) / RFU NPB (11741838_a_at) / Fold change /veh NPB (11741838_a_at) / RFU TMPRSS6 (11731388_a_at) / Fold change /veh TMPRSS6 (11731388_a_at) / RFU KRTAP10-2 (11738614_at) / Fold change /veh KRTAP10-2 (11738614_at) / RFU ARHGAP8 /// PRR5-ARHGAP8 (11727945_x_at) / Fold change /veh ARHGAP8 /// PRR5-ARHGAP8 (11727945_x_at) / RFU KRTAP5-7 /// NADSYN1 (11734609_at) / Fold change /veh KRTAP5-7 /// NADSYN1 (11734609_at) / RFU RASL12 (11751679_a_at) / Fold change /veh RASL12 (11751679_a_at) / RFU CDKN2B (11736163_a_at) / Fold change /veh CDKN2B (11736163_a_at) / RFU PRF1 (11729649_at) / Fold change /veh PRF1 (11729649_at) / RFU, ZNF638 /// ZNF638-IT1 / Fold change vs veh, ZNF638 /// ZNF638-IT1 / RFU, PANK3 / Fold change vs veh, PANK3 / RFU, SH3YL1 / Fold change vs veh, SH3YL1 / RFU, ZEB2 / Fold change vs veh, ZEB2 / RFU, NRIP1 / Fold change vs veh, NRIP1 / RFU, PTTG1IP / Fold change vs veh, PTTG1IP / RFU, CAPN2 / Fold change vs veh, CAPN2 / RFU, MED14 / Fold change vs veh, MED14 / RFU, SNORA58 / Fold change vs veh, SNORA58 / RFU, C1orf63 / Fold change vs veh, C1orf63 / RFU, LRRFIP1 / Fold change vs veh, LRRFIP1 / RFU, NDUFAF7 / Fold change vs veh, NDUFAF7 / RFU, SLC12A2 / Fold change vs veh, SLC12A2 / RFU, IBTK / Fold change vs veh, IBTK / RFU, ESF1 / Fold change vs veh, ESF1 / Fold change vs veh, TMEM50B / RFU, TAOK1 / Fold change vs veh, TAOK1 / RFU, ACBD3 / Fold change vs veh, ACBD3 / RFU, TMA16 / Fold change vs veh, TMA16 / RFU, RWDD3 / Fold change vs veh, RWDD3 / RFU, BCAT1 / Fold change vs veh, BCAT1 / RFU, EDEM3 / Fold change vs veh, EDEM3 / RFU, TMEM33 / Fold change vs veh, TMEM33 / RFU, WDR75 / Fold change vs veh, WDR75 / RFU, AHCTF1 / Fold change vs veh, AHCTF1 / RFU, TFRC / Fold change vs veh, TFRC / RFU, ZDHHC17 / Fold change vs veh, ZDHHC17 / RFU, NOM1 / Fold change vs veh, NOM1 / RFU, ARL8B / Fold change vs veh, ARL8B / RFU, ZBTB11 / Fold change vs veh, ZBTB11 / RFU, TAMM41 / Fold change vs veh, TAMM41 / RFU, KIAA1704 /// LOC100996395 / Fold change vs veh, KIAA1704 /// LOC100996395 / RFU, ING1 / Fold change vs veh, ING1 / RFU, TRMT61B / Fold change vs veh, TRMT61B / RFU, FUBP3 / Fold change vs veh, FUBP3 / RFU, TP53 / Fold change vs veh, TP53 / RFU, TNKS2 / Fold change vs veh, TNKS2 / RFU, ZFP14 / Fold change vs veh, ZFP14 / RFU, ACTR2 / Fold change vs veh, ACTR2 / RFU, PPP3R1 / Fold change vs veh, PPP3R1 / RFU, PIK3R1 / Fold change vs veh, PIK3R1 / RFU, HNRNPA1 / Fold change vs veh, HNRNPA1 / RFU, RNF170 / Fold change vs veh, RNF170 / RFU, ZNF28 / Fold change vs veh, ZNF28 / RFU, RNGTT / Fold change vs veh, RNGTT / RFU, OGT / Fold change vs veh, OGT / RFU, BRD1 / Fold change vs veh, BRD1 / RFU, MARS / Fold change vs veh, MARS / RFU, ZNF655 / Fold change vs veh, ZNF655 / RFU, FAHD1 / Fold change vs veh, FAHD1 / RFU, BDP1 / Fold change vs veh, BDP1 / RFU, LRRCC1 / Fold change vs veh, LRRCC1 / RFU, ARID1A / Fold change vs veh, ARID1A / RFU, ZNF146 / Fold change vs veh, ZNF146 / RFU, ZNF330 / Fold change vs veh, ZNF330 / RFU, GPN3 / Fold change vs veh, GPN3 / RFU, C9orf123 / Fold change vs veh, C9orf123 / RFU, N4BP2L2 / Fold change vs veh, N4BP2L2 / RFU, ARFIP1 / Fold change vs veh, ARFIP1 / RFU, FAM179B / Fold change vs veh, FAM179B / RFU, BCL10 / Fold change vs veh, BCL10 / RFU, UHRF1BP1L / Fold change vs veh, UHRF1BP1L / RFU, BET1 / Fold change vs veh, BET1 / RFU, CNOT2 / Fold change vs veh, CNOT2 / RFU, ZNF268 / Fold change vs veh, ZNF268 / Fold change vs veh, ZNF507 / RFU, DGCR2 / Fold change vs veh, DGCR2 / RFU, WDSUB1 / Fold change vs veh, WDSUB1 / Fold change vs veh, HSP90B1 /// MIR3652 / RFU, ADSS / Fold change vs veh, ADSS / RFU, GK / Fold change vs veh, GK / RFU, ZNF148 / Fold change vs veh, ZNF148 / RFU, TAF9 / Fold change vs veh, TAF9 / RFU, SLC1A5 / Fold change vs veh, SLC1A5 / RFU, SLMO2 / Fold change vs veh, SLMO2 / RFU, ABCC4 / Fold change vs veh, ABCC4 / RFU, LOC101060439 /// RAP1B / Fold change vs veh, LOC101060439 /// RAP1B / RFU, RFX7 / Fold change vs veh, RFX7 / RFU, GTPBP10 / Fold change vs veh, GTPBP10 / RFU, CNEP1R1 / Fold change vs veh, CNEP1R1 / RFU, BIVM-ERCC5 /// ERCC5 / Fold change vs veh, BIVM-ERCC5 /// ERCC5 / RFU, ILF3 / Fold change vs veh, ILF3 / RFU 11762660_at / Fold change /veh 11762660_at / RFU VCAN (11757783_s_at) / Fold change /veh VCAN (11757783_s_at) / RFU DDX43 (11728927_at) / Fold change /veh DDX43 (11728927_at) / RFU KRT8 (11758188_x_at) / Fold change /veh KRT8 (11758188_x_at) / RFU NKD1 (11759106_at) / Fold change /veh NKD1 (11759106_at) / RFU SRD5A1 (11742802_a_at) / Fold change /veh SRD5A1 (11742802_a_at) / RFU TPSAB1 /// TPSB2 (11721975_s_at) / Fold change /veh TPSAB1 /// TPSB2 (11721975_s_at) / RFU GSTM3 (11746129_a_at) / Fold change /veh GSTM3 (11746129_a_at) / RFU IL23R (11737362_x_at) / Fold change /veh IL23R (11737362_x_at) / RFU TMEM51 (11727254_a_at) / Fold change /veh TMEM51 (11727254_a_at) / RFU PIWIL2 (11732686_x_at) / Fold change /veh PIWIL2 (11732686_x_at) / RFU ORM1 (11744905_x_at) / Fold change /veh ORM1 (11744905_x_at) / RFU CCDC152 (11743942_at) / Fold change /veh CCDC152 (11743942_at) / RFU ECM1 (11717891_a_at) / Fold change /veh ECM1 (11717891_a_at) / RFU IL23R (11748794_a_at) / Fold change /veh IL23R (11748794_a_at) / RFU TNFAIP8L3 (11732012_x_at) / Fold change /veh TNFAIP8L3 (11732012_x_at) / RFU MBOAT4 (11741988_at) / Fold change /veh MBOAT4 (11741988_at) / RFU 11764193_at / Fold change /veh 11764193_at / RFU TMEM53 (11763286_at) / Fold change /veh TMEM53 (11763286_at) / RFU MAGEB2 (11727129_at) / Fold change /veh MAGEB2 (11727129_at) / RFU TMEM200A (11744735_a_at) / Fold change /veh TMEM200A (11744735_a_at) / RFU CCDC152 (11751479_a_at) / Fold change /veh CCDC152 (11751479_a_at) / RFU FAM211A (11726209_a_at) / Fold change /veh FAM211A (11726209_a_at) / RFU RGS16 (11746705_a_at) / Fold change /veh RGS16 (11746705_a_at) / RFU VCAN (11755009_s_at) / Fold change /veh VCAN (11755009_s_at) / RFU RHOB (11743442_s_at) / Fold change /veh RHOB (11743442_s_at) / RFU RGS16 (11720943_a_at) / Fold change /veh RGS16 (11720943_a_at) / RFU RGS16 (11720944_at) / Fold change /veh RGS16 (11720944_at) / RFU, VPS4B / Fold change vs veh, VPS4B / RFU, CREB1 / Fold change vs veh, CREB1 / RFU, DNAJC13 / Fold change vs veh, DNAJC13 / RFU, GNAQ / Fold change vs veh, GNAQ / RFU, CDK5R1 / Fold change vs veh, CDK5R1 / RFU, ZRANB3 / Fold change vs veh, ZRANB3 / RFU, CUL4A / Fold change vs veh, CUL4A / RFU, CCNY / Fold change vs veh, CCNY / RFU, UFL1 / Fold change vs veh, UFL1 / RFU, COG3 / Fold change vs veh, COG3 / RFU, DIAPH2 / Fold change vs veh, DIAPH2 / RFU, SKA2 / Fold change vs veh, SKA2 / RFU, AFF3 / Fold change vs veh, AFF3 / RFU, LMF1 / Fold change vs veh, LMF1 / RFU, IPO11 / Fold change vs veh, IPO11 / RFU, DFFB / Fold change vs veh, DFFB / RFU, FOXP1 / Fold change vs veh, FOXP1 / RFU, CARD8 / Fold change vs veh, CARD8 / RFU, STRN3 / Fold change vs veh, STRN3 / RFU, ADK / Fold change vs veh, ADK / RFU, RASSF2 / Fold change vs veh, RASSF2 / RFU, WIPF1 / Fold change vs veh, WIPF1 / RFU, LARP1B / Fold change vs veh, LARP1B / RFU, RASA1 / Fold change vs veh, RASA1 / RFU, RB1 / Fold change vs veh, RB1 / RFU, PPFIA1 / Fold change vs veh, PPFIA1 / RFU, MAT2A / Fold change vs veh, MAT2A / RFU, CCT5 / Fold change vs veh, CCT5 / RFU, WDR92 / Fold change vs veh, WDR92 / RFU, CUX1 / Fold change vs veh, CUX1 / RFU, TTC7A / Fold change vs veh, TTC7A / RFU, TMEM135 / Fold change vs veh, TMEM135 / RFU, DEPTOR / Fold change vs veh, DEPTOR / RFU, CPM / Fold change vs veh, CPM / RFU, DNAJB6 / Fold change vs veh, DNAJB6 / RFU, CACNA2D3 / Fold change vs veh, CACNA2D3 / RFU, DTX4 / Fold change vs veh, DTX4 / RFU, TFCP2 / Fold change vs veh, TFCP2 / RFU, GMCL1 /// GMCL1P1 / Fold change vs veh, GMCL1 /// GMCL1P1 / RFU, AEBP2 / Fold change vs veh, AEBP2 / RFU, SNHG1 /// SNORD22 /// SNORD25 /// SNORD26 /// SNORD27 /// SNORD28 /// SNORD29 /// SNORD31 / Fold change vs veh, SNHG1 /// SNORD22 /// SNORD25 /// SNORD26 /// SNORD27 /// SNORD28 /// SNORD29 /// SNORD31 / Fold change (Aza/veh), C12orf56 (ProbeSet 11735607_a_at) / Fold change (ACY-1035/veh), C12orf56 (ProbeSet 11735607_a_at) / Fold change (Aza/veh), FGFR1OP (ProbeSet 11751329_s_at) / Fold change (ACY-1035/veh), FGFR1OP (ProbeSet 11751329_s_at) / Fold change (Aza/veh), VPS36 (ProbeSet 11739960_a_at) / Fold change (ACY-1035/veh), VPS36 (ProbeSet 11739960_a_at) / RFU SYPL1 (11715823_x_at) / Fold change /veh SYPL1 (11715823_x_at) / RFU IGFBP7 (11715501_s_at) / Fold change /veh IGFBP7 (11715501_s_at) / RFU REEP3 (11722064_at) / Fold change /veh REEP3 (11722064_at) / RFU IGLL1 (11728026_x_at) / Fold change /veh IGLL1 (11728026_x_at): dose or concentration left out as unconfirmed. Format: cell-based, human. The settings on record: MV-4-11 cells, 48 hours.

Regarding `Nc1ccc(-c2cccs2)cc1NC(=O)c1ccc2c(c1)cc(C1CC1)n2CCN1CCOCC1` [ACY-1035], the “RFU TMEM200A (11744735_a_at)” value came to 5.05 RFU.
